Reference: publication PMC6522941, “Design, synthesis, and anticancer evaluation of novel quinoline derivatives of ursolic acid with hydrazide, oxadiazole, and thiadiazole moieties as potent MEK inhibitors” (Journal of Enzyme Inhibition and Medicinal Chemistry, 2019)

What was measured:
Assay type in all cases: cell-based, human
[1] = system: MDA-MB-231 cells; assay: MTT cytotoxic assay, MDA-MB-231; conditions: Homo sapiens, MDA-MB-231, 72 h
Description: (§1) Human breast cancer cell line (MDA-MB-231), cervical carcinoma cell line (HeLa), the liver cancer cell line (SMMC-7721) and normal hepatocyte cell line (QSG-7701) were maintained in Dulbecco Modified Eagle Medium (DMEM) containing 4.0 mM L-Glutamine and 4500 mg/L Glucose supplemented with 10% (v/v) foetal bovine serum (FBS) and 100 U/mL penicillin/streptomycin at 37 °C in humidified atmosphere of 5% CO2 and 95% air.
(§2) Exponentially growing MDA-MB-231, Hela and SMMC-7721 cell lines were seeded into 96-well plate for 100 μL and treated with different concentrations of the synthetic compounds for 72 h, and then 10 μL of MTT (10 mg/mL) was added and incubation for 3 ∼ 4 h at 37 °C. The generated purple formazan crystals from viable can be dissolved by adding 100 μL DMSO. The plates were swirled gently for 5 min and quantified by measuring the OD of the plates at the wavelength of 540 nm. Each concentration was repeated in three wells and the same experimental condition was provided for all compounds. The results were expressed as IC50 values with standard deviations, which was defined as the concentration at which 50% survival of cells was discerned. Etoposide was co-assayed as positive control.
(§3) The in vitro cytotoxic activity of derivatives 3a–d, 4a–h, 5a–h, and 6a–h were evaluated by MTT assay against human breast cancer cell line (MDA-MB-231), cervical carcinoma cell line (HeLa), hepatocarcinoma cell line (SMMC-7721) and human normal hepatocyte cell line (QSG-7701). The anticancer drug etoposide was co-assayed as the positive control. All tested compounds were dissolved in DMSO and the stock solutions were diluted by DMEM medium before treatment of the cultured cells.

[2] = system: ERK1/2 and pERK1/2 in HeLa cells; assay: Western blot of ERK and pERK; conditions: 48 h
Description: (§4) HeLa cells were seeded at a density of 5 × 10^6 cells per well and attached for 8 h, and then treated with different concentrations of compound 4d for 48 h. After the treatment, the cells were harvested and washed twice with PBS. The harvested cells were lysed with radio-immunoprecipitation assay (RIPA) lysis buffer (Beyotime Biotech., Nantong, China) with 1% cocktail (Sigma-Aldrich, St. Louis, MO, USA). Whole-cell protein lysates were prepared and centrifuged at 12,000 rpm for 10 min at 4 °C. The total proteins were determined using Bradford reagent (Bio-Rad Laboratories, Inc., Hercules, CA, USA). Exactly 40 μg of protein per lane was separated through sodium dodecyl sulphate-polyacrylamide gel electrophoresis and then transferred onto a polyvinylidene difluoride membrane (Millipore, Bedford, MA, USA). The membranes were incubated with each antibody and detected through immunoblot analysis. All of the antibodies were purchased from Cell signalling Technology, Inc. (Boston, MA, USA) and diluted in accordance with the manufacturer’s instruction. Proteins were visualised using a C-Digit® imaging system (LI-COR, Lincoln, NE, USA).
Subsequently, to evaluate the MEK inhibition of compound 4d in cancer cells, western blot analyses were also carried out to evaluate the expression levels of ERK and phosphorylated ERK (pERK) proteins in compound 4d-treated HeLa cells.

[3] = system: HeLa cells; assay: ROS generation assay (DCFH-DA); conditions: 0.2 μM, 48 h
Description: ROS generation assay was performed by using the reactive oxygen species assay kit (Beyotime Biotech., Nantong, China). Intracellular ROS generation was tested through dichlorodihydro fluorescein diacetate (DCFH-DA) assay. DCFH-DA is taken up by HeLa cells, and then activated by esterase-mediated cleavage of acetate to form DCFH, which is trapped in the cells. DCFH is converted to fluorescein DCF in the presence of ROS. HeLa cells were seeded in six-well plates and incubated with different concentrations of compound 4d for 48 h. After removing the compound solution, cells were treated with 10 μM of DCFH-DA at 37 °C for 20 min. Subsequently, the cells were washed with PBS for three times and then exposed to light. Immediately after light exposure, the fluorescence intensity of dichlorofluorescein (DCF) was measured with excitation at 488 nm and emission at 525 nm by a flow cytometry (Becton-Dickinson FACSCalibur, Totowa, NJ, USA).
ROS has been reported to be involved in early stages of apoptosis in many cellular systems. […] HeLa cells were exposed to compound 4d at 0 ∼ 0.2 μM concentrations for 48 h and the intracellular fluorescence intensity was quantitatively analysed by flow cytometry. […]

[4] = system: p90RSK, p-p90RSK, BAD, BIM in HeLa cells; assay: Western blot of downstream proteins of ERK; conditions: 0.05, 0.1, 0.2 μM, 48 h
Description: as §4
In addition, the effect of compound 4d on the downstream proteins of ERK (p90RSK, BAD, and BIM) was also investigated by western blot analysis. It is known that activated ERK1/2 (p-ERK1/2) directly phosphorylates and activates p90RSK, which subsequently decreases the level of pro-apoptotic BH3-only proteins BIM and BAD and inhibits their apoptosis-promoting activity.

[5] = system: QSG-7701 cells; assay: MTT cytotoxic assay, normal hepatocyte QSG-7701
Description: as §1, §2, §3

**Q.** With `CC(=O)NNC(=O)C12CCC(C)C(C)C1C1=CCC3C4(C)Cc5cc6cc(Cl)ccc6nc5C(C)(C)C4CCC3(C)C1(C)CC2` (centres unmarked) [Compound 4d, N-[5′-chloro-ursa-12-en-(2,3)-quinoline-28-oyl]-acetohydrazide] as the molecule, how does the IC50 [1] read?
**A.** 0.12 ± 0.01 µM

**Q.** What about the “expression level of pERK1/2, % of the control group” value ([2]; 0.05 μM) of the same molecule?
**A.** 74.7%

**Q.** And the “expression level of pERK1/2, % of the control group” value ([2]; 0.1 μM)?
**A.** 41.3%

**Q.** And the “expression level of pERK1/2, % of the control group” value ([2]; 0.2 μM)?
**A.** 29.5%

**Q.** And the “expression levels of ERK1/2” value ([2]; 0.05, 0.1, 0.2 μM)?
**A.** slightly decreased

**Q.** And the “expression levels of pERK1/2” value ([2]; 0.05, 0.1, 0.2 μM)?
**A.** significantly downregulated

**Q.** What about the “increase of mean fluorescence intensity compared to the control group” value [3] of the same molecule?
**A.** 84%

**Q.** What about the “% relative ROS raised cells” value ([3]; control 13.18) of the same molecule?
**A.** 49.66%

**Q.** And the “expression level of p90RSK” value [4]?
**A.** significantly decreased

**Q.** And the “expression level of p-p90RSK” value [4]?
**A.** significantly decreased

**Q.** What about the “level of BAD” value [4] of the same molecule?
**A.** upregulated

**Q.** And the “level of BIM” value [4]?
**A.** upregulated

**Q.** What about the IC50 ([5]; Homo sapiens, QSG7701, MTT, normal hepatocyte cell line) of the same molecule?
**A.** 10.8 ± 0.72 µM

**Q.** What about the Selectivity ([5]; IC50 (QSG-7701)/IC50 (HeLa)) of the same molecule?
**A.** 134.5
